# Results taken from publication PMC11137182, “Selective and brain-penetrant ACSS2 inhibitors target breast cancer brain metastatic cells” (Frontiers in Pharmacology, 2024).
# Like-named read-outs stand apart in the source and are kept apart here.
# How the values were obtained:
# [1] = system: 4T1BR cells; assay: Acetyl-CoA quantification by LC-HRMS; format: cell-based; conditions: 100 μM, 48 hours
# Experimental: (§1) Cells were grown to ∼80% confluency in a 10-cm dish in normal growth medium, 48 h prior to collecting cells, aspirate media and replace with fresh growth media and drug was added at 100 μM. To collect cells, media was aspirated and 1 mL of 10% trichloroacetic acid (w/v) in water was added directly to the cells. Cells were scraped and transferred into a 1.7 mL Eppendorf tube and stored at −80 until labeling. […] Lysates were centrifuged 17,000 g for 10 min at 4°C and supernatant was transferred to a deep-well 96-well plate for loading in a Tomtec Quadra4 liquid handling workstation. On the liquid handling workstation, lysates were applied to an Oasis HLB 96-well elution plate (30 mg of sorbent per well) pre-conditioned and equilibrated with 1 mL of methanol and 1 mL of water, respectively. After de-salting with 1 mL of water, analytes were eluted into a deep-well 96-well plate using 1 mL of 25 mM ammonium acetate in methanol. Eluent was evaporated dried under nitrogen gas. The dried LC-HRMS samples were resuspended in 50 µL of 5% (w/v) sulfosalicylic acid in water. […] A modified gradient using solvent A (5 mM ammonium acetate in water), solvent B (5 mM ammonium acetate in 95:5 (v:v) acetonitrile: water) and solvent C (0.1% (v/v) formic acid in 80:20 (v:v) acetonitrile: water). Data was acquired using XCalibur 4.0 (Thermo Scientific) and analyzed using Tracefinder 5.1 (Thermo Scientific).
# [2] = system: MDA-MB-231BR cells; assay: Acetyl-CoA quantification by LC-HRMS; format: cell-based; conditions: 100 μM, 48 h
# Experimental: as §1
# [3] = target: T1, ACSS2 (Homo sapiens, UniProt Q9NR19); assay: SPR binding to immobilized ACSS2; conditions: mean
# T1 construct: His-tag (N); His-tag (C); made in house; host or cells: E. coli BL21 (DE3) RIL
# Experimental: Overproduction of ACSS2 was achieved using a prokaryotic expression system. […] The bacterial expressions were then spun down, the supernatant discarded, and the pellets resuspended in 50 mM Tris HCl pH8.0, 800 mM NaCl, 5 mM Imidazole, 2 mM MgCl2, 10% Glycerol, 0.1 mg/mL Lysozyme, 1 mM Protease inhibitor (PMSF). After the cells were lysed via sonication, the sample was subjected to ultracentrifugation, and the clarified lysate was applied to a 5 mL Talon cobalt resin affinity column (Clonetech Laboratories, Mountain View, CA). The bound protein was washed with 300 mL wash buffer 1 (20 mM Tris HCl pH8.0, 800 mM NaCl, 15 mM Imidazole, 5 mM MgCl2, 10% Glycerol, 0.1% CHAPS) and 300 mL wash buffer 2 (20 mM Tris HCl pH8.0, 400 mM NaCl, 18 mM Imidazole, 5 mM MgCl2, 10% Glycerol) prior elution with 20 mM Tris HCl pH8.0, 400 mM NaCl, 300 mM Imidazole, 2 mM MgCl2, 5% Glycerol. Eluted ACSS2 was then dialyzed overnight into 20 mM Tris HCl pH8.0, 150 mM NaCl, 5% Glycerol, concentrated and applied to a Superdex S-200 (16/600) using the same buffer without Glycerol. ACSS2 fractions were pooled, concentrated to 3 mg/mL, aliquoted, and stored at −80°C. hACSS1 was obtained from a commercial vendor (www.mybiosource.com).
# All binding assays were performed on a ProteOn XPR36 SPR Protein Interaction Array System (Bio-Rad Laboratories, Hercules, CA, United States). The instrument temperature was set at 25°C for all kinetic analyses. ProteOn GLH sensor chips were preconditioned with two short pulses each (10 s) of 50 mM NaOH, 100 mM HCl, and 0.5% sodium […]. Then, the system was equilibrated with running buffer (1x PBS pH 7.4, 3% DMSO, and 0.005% polysorbate 20). The surface of a GLH sensor chip was activated with a 1:100 dilution of a 1:1 mixture of 1-ethyl-3-(3-dimethylaminopropyl) carbodiimide hydrochloride (0.2 M) and sulfo-N-hydroxysuccinimide (0.05 M). Immediately after chip activation, the human ACSS2 or hACSS1 proteins were prepared at a concentration of 10 μg/mL in 10 mM sodium acetate, pH 5.5, and injected across ligand flow channels for 5 min at a flow rate of 30 μL/min. Then, after unreacted protein had been washed out, excess active ester groups on the sensor surface were capped by a 5 min injection of 1M ethanolamine HCl (pH 8.0) at a flow rate of 5 μL/min. A reference surface was similarly created by immobilizing a nonspecific protein (IgG b12 anti-HIV-1 gp120; was obtained through the NIH AIDS Reagent Program, Division of AIDS, NIAID, NIH: Anti-HIV-1 gp120 Monoclonal (IgG1 b12) from Dr. Dennis Burton and Carlos Barbas) and was used as a background to correct nonspecific binding. […] Data were analyzed using the ProteOn Manager Software version 3.0 (Bio-Rad). The responses from the reference flow cell were subtracted to account for the nonspecific binding and injection artifacts. Experimental data were fitted to a simple 1:1 binding model. Experiments were performed in triplicate to detect kinetic and equilibrium dissociation constants (KD).
# [4] = system: MDA-MB-231BR cells; assay: BODIPY staining of lipid droplets; format: cell-based; conditions: 100 μM, 48 h
# Experimental: Cells were treated with 5uM BODIPY 493/503 (Invitrogen) and NucBlue® Live reagent (Invitrogen) in PBS for 15 min, washed 2x with 1xPBS, fixed using 4% paraformaldehyde for 30 min at RT in the dark and washed in 1xPBS prior to mounting and imaging on EVOS FL (Life Technologies) using […] for BODIPY and DAPI channel for NucBlue.
# T1 sequence (Q9NR19 whole entry): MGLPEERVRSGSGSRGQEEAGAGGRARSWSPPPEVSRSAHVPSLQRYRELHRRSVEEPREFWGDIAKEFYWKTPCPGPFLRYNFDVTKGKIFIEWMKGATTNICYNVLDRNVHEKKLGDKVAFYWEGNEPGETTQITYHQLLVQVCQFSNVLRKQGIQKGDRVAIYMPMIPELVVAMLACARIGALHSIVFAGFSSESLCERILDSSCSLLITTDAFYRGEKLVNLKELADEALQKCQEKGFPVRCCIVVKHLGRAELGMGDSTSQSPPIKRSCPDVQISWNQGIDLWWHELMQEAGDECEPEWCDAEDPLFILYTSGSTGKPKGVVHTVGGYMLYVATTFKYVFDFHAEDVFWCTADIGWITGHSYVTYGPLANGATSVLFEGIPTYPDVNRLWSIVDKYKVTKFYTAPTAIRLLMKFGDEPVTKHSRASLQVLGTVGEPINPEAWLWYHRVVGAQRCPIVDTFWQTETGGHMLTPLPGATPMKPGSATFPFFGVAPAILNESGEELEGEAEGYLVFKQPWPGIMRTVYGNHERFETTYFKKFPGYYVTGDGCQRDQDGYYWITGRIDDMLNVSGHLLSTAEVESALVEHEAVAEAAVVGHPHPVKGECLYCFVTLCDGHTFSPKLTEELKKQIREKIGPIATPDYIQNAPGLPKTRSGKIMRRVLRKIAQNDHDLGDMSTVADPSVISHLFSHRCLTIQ
smiles,measurement,setting,value
N[C@H](C(=O)N1CCCC(c2ccccc2)(c2ccccc2)C1)C1CC1 [AD-8007],acetyl-CoA levels,[1],significantly reduced acetyl-CoA levels
same,acetyl-CoA levels,[2],significantly reduced acetyl-CoA levels
same,koff,"[3]; 1:1 binding model, n=3, read-out: koff",0.547 s⁻¹
same,kon,"[3]; 1:1 binding model, n=3, read-out: kon",4790 M⁻¹ s⁻¹
same,Kd,"[3]; 25°C, Langmuir isotherm equilibrium fit, n=3, read-out: KD equilibrium",117 µM
same,Kd,"[3]; global fit, n=3, read-out: KD kinetic/global",149 µM
same,lipid droplet content,[4],significantly reduced lipid droplet content
